{
  "source": "patent US20240018145A1",
  "about": "“[…]-DEPENDENT EN[…] TREATING OR […]” (priority 2020, published 2024)",
  "data": [
    {"tested_on": "FLU A (PR/8/34)", "assay": "Flu A Neuraminidase Antiviral Assay", "format": "cell-based", "conditions": "not given", "units": {"EC50": "nM"}, "values": [
      {"molecule": "CN1C(=O)c2c(O)c(=O)ccn2N2C(c3ccccc3)CCCC12C", "note": "(single isomer, unassigned) [Compound 59B, 7-hydroxy-4a,5-dimethyl-1-phenyl-1,2,3,4,4a,5-hexahydrodipyrido[1,2-b:2′,1′-f][1,2,4]triazine-6,8-dione]", "EC50": 12.1},
      {"molecule": "CN1C(=O)c2c(O)c(=O)ccn2N2C(c3ccccc3C(F)(F)F)CCC12", "note": "(single isomer, unassigned) [Compound 15A, 6-hydroxy-4-methyl-1-(2-(trifluoromethyl)phenyl)-2,3,3a,4-tetrahydro-1H-pyrido[2,1-f]pyrrolo[1,2-b][1,2,4]triazine-5,7-dione]", "EC50": "> 8100"},
      {"molecule": "CN1C(=O)c2c(O)c(=O)ccn2N2C(c3ccccc3)C(CC(F)(F)F)CCC12", "note": "(single isomer, unassigned) [Compound 118A, 7-hydroxy-5-methyl-1-phenyl-2-(2,2,2-trifluoroethyl)-1,2,3,4,4a,5-hexahydrodipyrido[1,2-b:2′,1′-f][1,2,4]triazine-6,8-dione]", "EC50": "> 8100"},
      {"molecule": "CN1C(=O)c2c(O)c(=O)ccn2N2C1CCCC2(C)c1ccc(F)cc1", "note": "(single isomer, unassigned) [Compound 26A, 1-(4-fluorophenyl)-7-hydroxy-1,5-dimethyl-1,2,3,4,4a,5-hexahydrodipyrido[1,2-b:2′,1′-f][1,2,4]triazine-6,8-dione]", "EC50": 8.4},
      {"molecule": "CCN1C(=O)c2c(O)c(=O)cc(COC)n2N2C(c3ccccc3)C(CC(F)(F)F)CCC12", "note": "(stereo not shown) [Compound 131C, 5-ethyl-7-hydroxy-10-(methoxymethyl)-1-phenyl-2-(2,2,2-trifluoroethyl)-1,2,3,4,4a,5-hexahydrodipyrido[1,2-b:2′,1′-f][1,2,4]triazine-6,8-dione]", "EC50": "> 810"},
      {"molecule": "CCN1C(=O)c2c(O)c(=O)ccn2N2C1CCCC2(C)c1ccccc1", "note": "(single isomer, unassigned) [Compound 36A, 5-ethyl-7-hydroxy-1-methyl-1-phenyl-1,2,3,4,4a,5-hexahydrodipyrido[1,2-b:2′,1′-f][1,2,4]triazine-6,8-dione]", "EC50": 3.2},
      {"molecule": "CN1C(=O)c2c(O)c(=O)ccn2N2C1CCC1(CC(F)(F)C1)C2c1ccccc1", "note": "(single isomer, unassigned) [Compound 74A, 3,3-difluoro-7′-hydroxy-5′-methyl-1′-phenyl-3′,4′,4a′,5′-tetrahydro-1′H-spiro[cyclobutane-1,2′-dipyrido[1,2-b:2′,1′-f][1,2,4]triazine]-6′,8′-dione]", "EC50": "> 810"},
      {"molecule": "CN1C(=O)c2c(O)c(=O)ccn2N2C(c3ccccc3)C(CC(F)F)CCC12", "note": "(single isomer, unassigned) [Compound 129A, 2-(2,2-difluoroethyl)-7-hydroxy-5-methyl-1-phenyl-1,2,3,4,4a,5-hexahydrodipyrido[1,2-b:2′,1′-f][1,2,4]triazine-6,8-dione]", "EC50": 2.3},
      {"molecule": "CN1C(=O)c2c(O)c(=O)ccn2N2C1CCCC21CCc2ccccc21", "note": "(single isomer, unassigned) [Compound 21D, 7-hydroxy-5-methyl-2′,3,3′,4,4a,5-hexahydro-2H-spiro[dipyrido[1,2-b:2′,1′-f][1,2,4]triazine-1,1′-indene]-6,8-dione]", "EC50": 1550},
      {"molecule": "CN1C(=O)c2c(O)c(=O)ccn2N2C1CCC1(CC(F)(F)C1)C2c1ccccc1", "note": "(single isomer, unassigned) [Compound 74D, 3,3-difluoro-7′-hydroxy-5′-methyl-1′-phenyl-3′,4′,4a′,5′-tetrahydro-1′H-spiro[cyclobutane-1,2′-dipyrido[1,2-b:2′,1′-f][1,2,4]triazine]-6′,8′-dione]", "EC50": 442},
      {"molecule": "CN1C(=O)c2c(O)c(=O)ccn2N2C1CCC1(CCC(F)(F)CC1)C2c1ccccc1", "note": "(single isomer, unassigned) [Compound 72A, 4,4-difluoro-7′-hydroxy-5′-methyl-1′-phenyl-3′,4′,4a′,5′-tetrahydro-1′H-spiro[cyclohexane-1,2′-dipyrido[1,2-b:2′,1′-f][1,2,4]triazine]-6′,8′-dione]", "EC50": "> 810"},
      {"molecule": "CC1CC2N(C)C(=O)c3c(O)c(=O)ccn3N2C(C)(c2ccccc2)C1", "note": "(single isomer, unassigned) [Compound 43A, 7-hydroxy-1,3,5-trimethyl-1-phenyl-1,2,3,4,4a,5-hexahydrodipyrido[1,2-b:2′,1′-f][1,2,4]triazine-6,8-dione]", "EC50": 1170},
      {"molecule": "CCCC1CCC2N(C)C(=O)c3c(O)c(=O)ccn3N2C1(C)c1ccccc1", "note": "(single isomer, unassigned) [Compound 33B, 7-hydroxy-1,5-dimethyl-1-phenyl-2-propyl-1,2,3,4,4a,5-hexahydrodipyrido[1,2-b:2′,1′-f][1,2,4]triazine-6,8-dione]", "EC50": 1880},
      {"molecule": "CN1C(=O)c2c(O)c(=O)ccn2N2C(c3ccccc3)C3CCCC(C3)C12", "note": "(single isomer, unassigned) [Compound 11B, 4-hydroxy-6-methyl-12-phenyl-6,6a,7,8,9,10,11,12-octahydro-7,11-methanopyrido[1′,2′:1,6][1,2,4]triazino[2,3-a]azocine-3,5-dione]", "EC50": "> 8100"},
      {"molecule": "CN1C(=O)c2c(O)c(=O)ccn2N2C(c3ccccc3)C(CCC3CC3)CCC12", "note": "(single isomer, unassigned) [Compound 115C, 2-(2-cyclopropylethyl)-7-hydroxy-5-methyl-1-phenyl-1,2,3,4,4a,5-hexahydrodipyrido[1,2-b:2′,1′-f][1,2,4]triazine-6,8-dione]", "EC50": 2.7},
      {"molecule": "CN1C(=O)c2c(O)c(=O)ccn2N2C(c3ccccc3)C(c3cccc(F)c3F)CCC12", "note": "(single isomer, unassigned) [Compound 116B, 2-(2,3-difluorophenyl)-7-hydroxy-5-methyl-1-phenyl-1,2,3,4,4a,5-hexahydrodipyrido[1,2-b:2′,1′-f][1,2,4]triazine-6,8-dione]", "EC50": 6.9},
      {"molecule": "CC1CC2N(C)C(=O)c3c(O)c(=O)ccn3N2C(C)(c2ccccc2)C1", "note": "(single isomer, unassigned) [Compound 43D, 7-hydroxy-1,3,5-trimethyl-1-phenyl-1,2,3,4,4a,5-hexahydrodipyrido[1,2-b:2′,1′-f][1,2,4]triazine-6,8-dione]", "EC50": 7.8},
      {"molecule": "Cc1c(F)cccc1C1C(CC(F)(F)F)CCC2N(C)C(=O)c3c(O)c(=O)ccn3N12", "note": "(single isomer, unassigned) [Compound 80A, 1-(3-fluoro-2-methylphenyl)-7-hydroxy-5-methyl-2-(2,2,2-trifluoroethyl)-1,2,3,4,4a,5-hexahydrodipyrido[1,2-b:2′,1′-f][1,2,4]triazine-6,8-dione]", "EC50": 59.6},
      {"molecule": "CC1(c2ccccc2)CCCC2N(CC3CC4(CCC4)C3)C(=O)c3c(O)c(=O)ccn3N21", "note": "(single isomer, unassigned) [Compound 42A, 7-hydroxy-1-methyl-1-phenyl-5-(spiro[3.3]heptan-2-ylmethyl)-1,2,3,4,4a,5-hexahydrodipyrido[1,2-b:2′,1′-f][1,2,4]triazine-6,8-dione]", "EC50": "> 8100"},
      {"molecule": "Cc1cccc(F)c1C1C(CC(F)(F)F)CCC2N(C)C(=O)c3c(O)c(=O)ccn3N12", "note": "(single isomer, unassigned) [Compound 77D, 1-(2-fluoro-6-methylphenyl)-7-hydroxy-5-methyl-2-(2,2,2-trifluoroethyl)-1,2,3,4,4a,5-hexahydrodipyrido[1,2-b:2′,1′-f][1,2,4]triazine-6,8-dione]", "EC50": 1.9},
      {"molecule": "COCCN1C(=O)c2c(O)c(=O)ccn2N2C(c3ccc(F)cc3)CCCC12", "note": "(single isomer, unassigned) [Compound 4B, 1-(4-fluorophenyl)-7-hydroxy-5-(2-methoxyethyl)-1,2,3,4,4a,5-hexahydrodipyrido[1,2-b:2′,1′-f][1,2,4]triazine-6,8-dione]", "EC50": "> 8100"},
      {"molecule": "CN1C(=O)c2c(O)c(=O)ccn2N2C(c3cccc(OC(F)F)c3)CCCC12", "note": "(single isomer, unassigned) [Compound 12B, 1-(3-(difluoromethoxy)phenyl)-7-hydroxy-5-methyl-1,2,3,4,4a,5-hexahydrodipyrido[1,2-b:2′,1′-f][1,2,4]triazine-6,8-dione]", "EC50": "> 8100"},
      {"molecule": "CN1C(=O)c2c(O)c(=O)ccn2N2C(c3cccc4ccccc34)CCCC12", "note": "(single isomer, unassigned) [Compound 5B, 7-hydroxy-5-methyl-1-(naphthalen-1-yl)-1,2,3,4,4a,5-hexahydrodipyrido[1,2-b:2′,1′-f][1,2,4]triazine-6,8-dione]", "EC50": 1700}
    ]},
    {"tested_on": "FLU A (PR/8/34)", "assay": "Flu A Neuraminidase Antiviral Assay", "format": "cell-based", "conditions": "MDCK, 48 h", "units": {"EC50": "nM"}, "values": [
      {"molecule": "CN1C(=O)c2c(O)c(=O)ccn2N2C(c3ccccc3)C(O)CCC12", "note": "(single isomer, unassigned) [Compound 135A, 2,7-dihydroxy-5-methyl-1-phenyl-1,2,3,4,4a,5-hexahydrodipyrido[1,2-b:2′,1′-f][1,2,4]triazine-6,8-dione]", "EC50": 428},
      {"molecule": "CS[C@H]1CC[C@@H](c2ccccc2)N2[C@@H]1N(C)C(=O)c1c(O)c(=O)ccn12", "note": "[Compound 147, (1S,4S,4aS)-7-hydroxy-5-methyl-4-(methylthio)-1-phenyl-1,2,3,4,4a,5-hexahydrodipyrido[1,2-b:2′,1′-f][1,2,4]triazine-6,8-dione]", "EC50": 16.8}
    ]}
  ]
}
